The values that follow are results of earlier work, collected in patent EP4632015A1, “COMPOUNDS FOR USE IN IN VIVO FLUORESCENCE-LIFETIME IMAGING” (Université de Bourgogne, priority 2024, dated 2025).

The conditions of this series: in a biological environment.

In the case of `CC1(C)C(=CC=C2CCCC(C=CC3=[N+](CCCCCC(=O)[O-])c4ccc(S(=O)(=O)[O-])cc4C3(C)C)=C2Oc2ccc(S(=O)(=O)[O-])cc2)N(CCCCS(=O)(=O)[O-])c2ccc(S(=O)(=O)[O-])cc21.[Na+].[Na+].[Na+].[Na+]` [IRDye800CW], the lifetime entry is reported as “less than 1 ns”. For `CC1(C)C(/C=C/C=C/C=C/C=C2\N(CCCCS(=O)(=O)[O-])c3ccc4ccccc4c3C2(C)C)=[N+](CCCCS(=O)(=O)[O-])c2ccc3ccccc3c21.[Na+]` [ICG], the lifetime result is given as “less than 1 ns”.
